These results are taken from patent US9694018B1, “IBAT inhibitors for the treatment of liver disease” (Albireo AB, priority 2010, dated 2017).

The subject of this assay is Mdr2−/− mice. The experiment in a line: In vivo animal model of primary sclerosing cholangitis (Mdr2-/- mice). Particulars: daily oral gavage for 2-4 weeks, vs vehicle. An excerpt:
A genetic mice with targeted disruption of the Multidrug resistant Mdr2 (Abcb4) gene encoding a canalicular phospholipid flippase (Mdr2−/− mice) spontaneously develop sclerosing cholangitis with macroscopic and microscopic features of human Primary sclerosing cholangitis. Bile duct injury in these mice is linked to defective biliary phospholipid secretion resulting in an increased concentration of free non-micellar bile acids which subsequently cause bile duct epithelial cell (cholangiocyte) injury, pericholangitis, periductal fibrosis with ductular proliferation and finally sclerosing cholangitis. […] In analogy to the Mdr2−/− mouse model of sclerosing cholangitis, Multidrug resistant protein MDR3/ABCB4 (the human orthologue of rodent Mdr2/Abcb4) defects play a role in the pathogenesis of various cholangiopathies in humans. MDR3 variants play a role as a modifier gene in the pathogenesis of various cholangiopathies such as PSC, Primary Biliary cirrhosis (PBC) and adulthood idiopathic ductopenia/billary fibrosis.
Mdr2−/− mice were given daily oral doses of the compound of Example 14 by gavage for 2-4 weeks and controls were dosed the vehicle in the same way. Serum liver tests, liver histology and fibrosis were investigated. The compound of Example 14 improves liver tests, liver histology and fibrosis.

Take `CCCCC1(CCCC)CN(c2ccccc2)c2cc(SC)c(OCC(=O)N[C@@H](C(=O)NCC(=O)O)c3ccccc3)cc2S(=O)(=O)C1` [Example 14, 1,1-Dioxo-3,3-dibutyl-5-phenyl-7-methylthio-8-(N—{(R)-1′-phenyl-1′-[N′-(carboxymethyl)carbamoyl]methyl}carbamoylmethoxy)-2,3,4,5-tetrahydro-1,5-benzothiazepine]: the Serum liver tests entry was “improves”.
